# Measurements as given in patent US9879243B2, “Culture medium for cell growth and transfection” (LIFE TECHNOLOGIES CORPORATION, priority 2001, dated 2018).
# Assays:
# 293 cells [1] = test: Effect of replacement compounds on the growth of 293 cells in 293 SFM without transferrin, three passages; assay type: cell-based, human; conditions: third passage, control 5 μg/mL human holo-transferrin
# Procedure: Semi-confluent adherent cultures of 293 Cells (ATCC, CRL 1573) are readily adapted to suspension culture. The cells are first detached with a solution of Trypsin-EDTA (0.05% Trypsin, 0.53 mM Na4EDTA), and then resuspended in conventional medium supplemented with 10% FBS to inhibit the trypsin. The resuspended cells are centrifuged at 200×g for five minutes.
# The initial seeding density of the 293 cells after conversion to suspension culture is 1×10^6 cells/mL. The cells are shaken on a rotary shaker at 150 rpm in a 37° C. incubator equilibrated with 8% CO2-92% air. […] Because 293 cells have a tendency to aggregate, the cells can be vortexed vigorously for approximately 45 seconds to obtain a predominantly single cell suspension at the time of passaging and counting. After several passages in suspension culture, the maximum achievable density can be determined.
# (§1) For replacement compound evaluation, 293 cells were established in 125 mL shaker flasks at an initial viable seeding density of 2×10^5 cells/mL in a final volume of 20 mL. All cultures were maintained at 37° C. in humidified air containing 8% CO2. To eliminate transferrin carry-over effects, cells were subcultured at 4 day intervals for a total of three passages. At each subculturing, cells were seeded at a density of 2×10^5 cells/mL. Positive control cultures contained 5 μg/mL human holo-transferrin while negative control cultures were established in the absence of either transferrin or replacement compound. Replacement compound stocks were prepared at 0.1M-0.2M in ddH2O and solubilized when necessary using 5N NaOH or HCl. Iron complexes were established using 0.2 M replacement compound and iron stocks mixed 1:1 (v/v) and incubated for 5-10 minutes at 22° C. All solutions containing replacement compounds were filter sterilized using a 0.22 μm Millex-GV filter prior to addition to transferrin and serum-free media.
# Except where noted, replacement compounds were evaluated either alone or in combination with ferric chloride or ferrous sulfate at 25 μM, 50 μM and 100 μM. When used in combination, the replacement compounds were used in equimolar concentration with iron ions. Values in Table 4 represent the mean percentage of control growth for duplicate cultures determined at the third passage.
# When added to the medium formulation uncomplexed, the replacement compound is listed alone, when added as a complex with a transition metal, the source of the transition metal is listed with the replacement compound.
# CHO cells = test: Effect of replacement compounds on the growth of CHO cells in CD CHO medium without transferrin, three passages; assay type: cell-based, Chinese hamster; conditions: third passage
# Procedure: as §1, with “The ability of replacement compounds to support cellular growth in the absence of transferrin was evaluated using CHO cells maintained in CD CHO medium (Invitrogen Corporation, Carlsbad, Calif., the formulation of which is described in WO 98/08934). Stock cultures containing 5 μg/mL human holo-transferrin were prepared in CD CHO medium. For” for “For”, “CHO” for “293”, “1×10^5” for “2×10^5”, “passages.” for “passages. At each subculturing, cells were seeded at a density of 2×10^5 cells/mL.”, “0.2M” for “0.2 M”
# Except where noted, replacement compounds were evaluated either alone or in combination with ferric chloride or ferrous sulfate at 25 μM, 50 μM and 100 μM. Values in the table represent the mean percentage of control growth for duplicate cultures determined at the third passage.
# The ability of various replacement compounds to substitute for transferrin in the culture of CHO cells was determined. When added to the medium formulation un-complexed, the replacement compound is listed alone, when added as a complex with a transition metal, the source of the transition metal is listed with the metal binding compound.
# 293 cells [2] = test: β-galactosidase expression after transfection (pCMV-SPORT-β-gal, LIPOFECTAMINE 2000) of 293 cells in monolayer culture, 24-well plates; assay type: cell-based, human; conditions: Table 8, replacement compounds 25 μM in test media, 24 hrs post-transfection
# Procedure: When cultured in suspension, cells were split to 3×10^5 viable cells per ml at each passage. On the week of transfection cells were seeded at 3×10^5 viable cells per ml. After ˜48 hrs of growth (day 2) cells were vortexed for 30 seconds and counted and appropriate volumes used for transfection as described in procedures below.
# In addition, the base media comprises 2.4 g/L NaHCO3, 2.98 g/L Hepes, 4 mM L-glutamine and 3 ml/L PLURONIC F-68 (Invitrogen Corp., Carlsbad, Calif.).
# The osmolarity is adjusted to from about 275-310 mOsm, preferably about 280 mOsm and the pH is adjusted to from about 7.0 to about 7.45 preferably about 7.4 respectively.
# Three wells were set up for each treatment. A volume of media corresponding to 3×10^6 viable cells was centrifuged. The supernatant was removed and the cells re-suspended in 600 μl test media. Each well of a 24 well plate received 200 μl of the re-suspended cells.
# To prepare the nucleic acid for the transfection experiments, 93 μl test media+3 μl DNA+24 μl LIPOFECTAMINE 2000 were combined in a microfuge tube and complexed for 30 minutes. A 40 μl aliquot of complex was added to each well. 250 μl test media was added to each well five hours after addition of complex. The final cell concentration was 1×10^6 viable cells per well; the final DNA concentration was 1 μg per 1×10^6 viable cells and the final LIPOFECTAMINE 2000 concentration was 8 μl per 1×10^6 viable cells.
# 24 hrs post-transfection, samples were collected for β-galactosidase quantitation. The contents of duplicate wells were pooled (i.e. ˜2×10^6 cells for the assay) for each sample and transferred to a microfuge tube. The cells were centrifuged, the supernatant was removed and the cells were re-suspended in 1 ml of D-PBS. The cells were pelleted a second time and re-suspended in 1 ml of D-PBS. The samples were then stored at −70° C. Prior to the assay for β-galactosidase, samples were freeze-thawed a total of five times.
# 293 cells were grown in monolayer culture in the presence of the various replacement compounds indicated and transfection experiments performed as described above. The results are shown in Table 8 and the values are β-galactosidase activity expressed as nanograms of β-galactosidase per 2×10^6 cells. A comparison was made between the transfection efficiency of DNA complexes formed in D-MEM medium and DNA complexes formed in test medium. […]
# For cells transfected in 24-well plates, cells densities used were 1×10^6 viable cells per well.
# Sp2/0 cells = test: Effect of replacement compounds on the growth of Sp2/0 cells in CD Hybridoma medium without transferrin, three passages; assay type: cell-based; conditions: third passage
# Procedure: The ability of replacement compounds to support cellular growth in the absence of transferrin was evaluated using Sp2/0 cells maintained in CD Hybridoma medium (Invitrogen Corporation, Carlsbad, Calif.).
# Stock cultures containing 5 μg/mL human holo-transferrin were prepared in CD Hybridoma medium. For replacement compound evaluation, Sp2/0 cells were established at an initial viable cell density of 0.5×10^5 cells/mL in stationary culture using 75 cm^2 tissue culture flasks in a final volume of 20 mL. All cultures were maintained at 37° C. in humidified air containing 8% CO2. To eliminate transferrin carry-over effects, cells were subcultured at the same seeding density at 4 day intervals for a total of three passages. Positive control cultures contained 5 μg/mL human holo-transferrin while negative control cultures were established in the absence of either transferrin or replacement compound. Replacement compound stocks were prepared at 0.1M-0.2M in ddH2O and solubilized when necessary using 5N NaOH or HCl. Iron complexes were established using 0.2M replacement compound and iron stocks mixed 1:1 (v/v) and incubated for 5-10 minutes at 22° C. All solutions containing replacement compounds were filter sterilized using a 0.22 μm Millex-GV filter prior to addition to transferrin and serum-free media.
# Except where otherwise noted, replacement compounds were evaluated either alone or in combination with ferric chloride or ferrous sulfate at 25 μM, 50 μM and 100 μM. Values in the table represent the mean percentage of control growth for duplicate cultures determined at the third passage.
# When added to the medium formulation un-complexed, the replacement compound is listed alone, when added as a complex with a transition metal, the source of the transition metal is listed with the replacement compound.
# [3] = 25 μM, iron equimolar where combined
# [4] = 25 μM, control 5 μg/mL human holo-transferrin
Molecule,mean percentage of control growth (293 cells [1]; [3]),mean percentage of control growth (293 cells [1]; 50 μM),mean percentage of control growth (293 cells [1]; 100 μM),mean percentage of control growth (CHO cells; [4]),mean percentage of control growth (CHO cells; 50 μM),mean percentage of control growth (CHO cells; 100 μM),"β-galactosidase activity; D-MEM used for complexing, Test media to re-suspend cells (293 cells [2])",β-galactosidase activity; Test Media used for complexing and to re-suspend cells (293 cells [2]),mean percentage of control growth (Sp2/0 cells; [4]),mean percentage of control growth (Sp2/0 cells; 50 μM),mean percentage of control growth (Sp2/0 cells; 100 μM)
"[Cl][Fe]([Cl])[Cl].c1ccc(Nc2ccccn2)nc1 [2,2-Dipyridylamine•Ferric Chloride]",118 percentage of control growth,96 percentage of control growth,101 percentage of control growth,40 percentage of control growth,48 percentage of control growth,65 percentage of control growth,347 nanograms of β-galactosidase per 2×10^6 cells,459 nanograms of β-galactosidase per 2×10^6 cells,–,–,–
"[Cl][Fe]([Cl])[Cl] [Ferric Chloride, reference compound]",87 percentage of control growth,91 percentage of control growth,109 percentage of control growth,56 percentage of control growth,85 percentage of control growth,101 percentage of control growth,18 nanograms of β-galactosidase per 2×10^6 cells,0 nanograms of β-galactosidase per 2×10^6 cells,55 percentage of control growth,73 percentage of control growth,74 percentage of control growth
O=S(=O)([O-])[O-].[Fe+2].[O-][n+]1cccc(O)c1 [3-Hydroxypyridine-N-Oxide•Ferrous Sulfate],104 percentage of control growth,58 percentage of control growth,0 percentage of control growth,–,–,–,176 nanograms of β-galactosidase per 2×10^6 cells,317 nanograms of β-galactosidase per 2×10^6 cells,–,–,–
Human Transferrin (as control): human transferrin used as control replacement compound in test media,–,–,–,–,–,–,326 nanograms of β-galactosidase per 2×10^6 cells,3279 nanograms of β-galactosidase per 2×10^6 cells,–,–,–
Ferrous Gluconate•Ascorbic Acid Phosphate,86 percentage of control growth,109 percentage of control growth,101 percentage of control growth,91 percentage of control growth,61 percentage of control growth,28 percentage of control growth,116 nanograms of β-galactosidase per 2×10^6 cells,275 nanograms of β-galactosidase per 2×10^6 cells,92 percentage of control growth,94 percentage of control growth,93 percentage of control growth
"Cc1occc(=O)c1O [3-Hydroxy-2-Methyl-4-Pyrone (Maltol), 3-Hydroxy-2-Methyl-4-Pyrone]",0 percentage of control growth,28 percentage of control growth,81 percentage of control growth,–,–,–,103 nanograms of β-galactosidase per 2×10^6 cells,52 nanograms of β-galactosidase per 2×10^6 cells,0 percentage of control growth,0 percentage of control growth,0 percentage of control growth
Diethylenetriamine Penta-Acetic Acid•Ferric Chloride,79 percentage of control growth,96 percentage of control growth,102 percentage of control growth,–,–,–,131 nanograms of β-galactosidase per 2×10^6 cells,574 nanograms of β-galactosidase per 2×10^6 cells,–,–,–
